Among the data in patent publication US5300498A, “6-piperazinyl-1H-pyrazolo[3,4-b]pyridine-3-carboxylic acids, esters, amides and related compounds” (Hoechst-Roussel Pharmaceuticals Incorporated, priority 1993, dated 1994) are IC50 values, retold here.

Structures can show the parent of a compound that is named as a salt.

Usually IC50 stands for the concentration that inhibits the measured activity by half.

The test system of the test is serotonin (5HT) uptake. Nature of the test: [^3 H]-Serotonin Uptake in Rat Whole Brain and Hypothalamic Synaptosomes. Format: biochemical, rat (male CR Wistar). The settings on record: 50 nM [^3 H]-5HT, 37° C., 5 minutes, read-out: Inhibition of Serotonin Uptake, IC50. The method, then:
[^3 H]-Serotonin Uptake in Rat Whole Brain and Hypothalamic Synaptosomes
A. Animals: Male CR Wistar rats (100-125 g).
1. Krebs-Henseleit Bicarbonate Buffer, pH 7.4 (KHBB):
Prior to use add to 200 ml, per assay:
Make a 4 liter batch, containing the following salts:
3. Sucrose solution: 0.32M sucrose containing 5 mM HEPES and 0.1 mM EDTA; pH to 7.3 using Tris base.
4. A 0.1 mM stock solution of serotonin creatinine SO4 is made up in 0.01N HCl. This is used to dilute the specific activity of the radiolabeled 5HT.
The final desired concentration of [^3 H]-5HT in the assay is 50 nM. The dilution factor is 0.8.
6. For most assays, a 0.5 mM stock solution of the test compound is made up initially in either 10 μl of glacial acetic acid, 100 μl DMSO or 10 μl of the recrystallization solvent, to which is added approximately 10 ml of distilled water. Compounds are initially screened in duplicate at 3 concentrations (10^-8, 10^-7 and 10^-6 M) made up in water.
43, 1114 (1984) and Dunkley, P. R., Jarvie, R. E., Heath, J. W., Kidd, G. J., Rostas, J. A. P. Brain Research 372, 115 (1986). Male Wistar rats are decapitated and the brain rapidly removed. […] The following procedures are performed on ice. Homogenization should be done with 4-5 up and down strokes at medium speeds (setting 4.5 to 5) to minimize synaptosome lysis.
Tubes are carefully removed, and the top layer and the top part of the middle (red) layer are discarded using a pasteur pipette. […] This is carefully removed, placed in a centrifuge tube, diluted with KHBB and spun at 21,000 g (13,000 rpm, Sorvall SS-34 rotor).
200 μl of the tissue suspension are added to each of 24 tubes (at a time) containing the 20 μl of vehicle or drug on ice. Three minutes later, 800 μl of KHBB containing [^3 H]-5HT are added, and the tubes are vortexed. […] Uptake is terminated by filtration through GF/B filter strips using a Brandel cell harvester (filter strips are presoaked in ice cold filtration buffer). Tubes are washed once with 5 ml of ice cold filtration buffer.
With `CN1CCN(c2ccc3c(C#N)n[nH]c3n2)CC1` [6-(4-Methyl-1-piperazinyl)-1H-pyrazolo[3,4-b]pyridine-3-carbonitrile], the IC50 is 764 nM.

In the case of `CN1CCN(c2ccc3cnn(C)c3n2)CC1` [1-Methyl-6-(4-methyl-1-piperazinyl)-1H-pyrazolo[3,4-b]pyridine], the IC50 worked out at 3430 nM.

Take `CN1CCN(c2ccc3cn[nH]c3n2)CC1` [6-(4-Methyl-1-piperazinyl)-1H-pyrazolo[3,4-b]pyridine]: the IC50 turned out to be 8260 nM.

As to `N#Cc1n[nH]c2nc(N3CCCNCC3)ccc12` [6-(Hexahydro-1H-1,4-diazepin-1-yl)-1H-pyrazolo[3,4-b]pyridine-3-carbonitril], the IC50 came out at 349 nM.

Take `N#Cc1n[nH]c2nc(N3CCNCC3)ccc12` [6-(1-Piperazinyl)-1H-pyrazolo[3,4-b]pyridine-3-carbonitrile]: the IC50 is 696 nM.

Take `NC(=O)c1n[nH]c2nc(N3CCNCC3)ccc12` [6-(1-Piperazinyl)-1H-pyrazolo[3,4-b]pyridine-3-carboxamide hydrochloride hydrate]: the IC50 came to 7690 nM.
